Source: patent US20230202980A1, “N-(2-Aminophenyl)-Prop-2-Enamide Derivatives, and Uses Thereof in the Treatment of Cancer” (National University of Singapore, priority 2019, published 2023)
One block for each molecule: values may come before it.

How the values were obtained:
[1] = system: SNU-398 (SALL4 high) cells; assay: SALL4 high/low phenotypic screen (cell viability, CellTiter-Glo), SALL4 high cells; format: cell-based; conditions: for IC50: Homo sapiens, SNU-398, read-out: IC50 in high SALL4 SNU398 cells; for IC50 / IC50 in high SALL4 SNU398 cells: SALL4 high/low phenotypic screen, 72 hrs; for fold less potent than the most active compounds: SALL4 high SNU398 cells
Procedure: (§1) SNU-387 empty vector, Tg:SALL4A, and Tg:SALL4B expressing isogenic cell lines were generated by transducing WT SNU-387 cells with empty vector, SALL4A or SALL4B FUW-Luc-mCh-puro lentiviral constructs^1. Cells were plated in 50 µl of RPMI culture media in 384-well white flat-bottom plates (Coming) and incubated at 37° C. in a humidified atmosphere of 5% CO2 overnight. Cell numbers per well were 1500 for SNU-398, and 750 for SNU-387 and SNU-387 isogenic lines. After overnight incubation, varying concentrations of compounds 1-80 were added to cells with multichannel electronic pipettes (Rainin). Cells were then incubated for 72 hrs at 37° C. in a humidified atmosphere of 5% CO2 before 10 µl of CellTiter-Glo reagent was added to the wells with the MultiFlo Microplate Dispenser (BioTek). Cells were incubated at room temperature for a mininuun of 10 minutes after which luminescence readings were recorded by an Infinite M1000 Microplate Reader (Tecan).
This testing was based on SALL4 high/low phenotypic screen as described herein. IC50 values noted for the compounds/groups above are based on ICso in high SALL4 SNU398 cells.
ALPHA assay measures binding between SALL4 and RBBp4, an inhibitor could block the binding and reflected in low reading of the ALPHA assay. FP assay also measures binding between SALL4 and RBBp4, an inhibitor results in […] reading. Cell-based assays are measuring cell viability with different concentration of compounds. Cell based 1299 refers to cell viability assay using H1299 cells; Cell-based SNU387 refers to cell viability assay using SNU387 cells; Cell based assay-SNU-398 refers to cell viability assay using SNU398 cells; Cell based MDA-MB231 refers to cell viability assay using MDA-MB231 cells.

[2] = system: SNU-387 (SALL4 low) cells; assay: SALL4 high/low phenotypic screen (cell viability, CellTiter-Glo), SALL4 low cells; format: cell-based; conditions: Example 1, see FIG. 2
Procedure: as §1
ALPHA assay measures binding between SALL4 and RBBp4, an inhibitor could block the binding and reflected in low reading of the ALPHA assay. FP assay also measures binding between SALL4 and RBBp4, an inhibitor results in […] reading. Cell-based assays are measuring cell viability with different concentration of compounds. […]

[3] = PAMPA permeability assay; format: in vitro ADME; conditions: 50 µM, pION buffer, 4 hours
Description: (§2) Pan-HDAC binding assay measures HDAC inhibitory activity of a compound. Tubulin Polymerisation inhibition assays measure inhibition activity of a compound towards tubulin polymerization. SALL4 protein expression down regulation assay changed to western blot analysis, SALL4 RNA expression down regulation assay changed to real-time PCR assay. Permeability assay measures the (PAMPA) measures permeability of a compound across an artificial membrane. The microsomal stability assay measures rate of disappearance of a test compound over time in liver microsomes. In vivo PK assay measures biodistribution of the test compound in mice.
50 µM of Compound 6 prepared in pION buffer was added to bottom of UV plate. GIT-0 solution was added and the solution was incubated for 4 hours. The plate spectrum was read using spectrophotometer in scanning mode from 200 nm to 500 nm using PAMPA pION software.

[4] = system: SALL4 high tumor; assay: In vivo xenotransplant testing in mice; conditions: treated mice, P<0.05
[5] = system: SALL4 RNA; assay: SALL4 RNA expression down regulation (Q-PCR) in H661 cells; format: cell-based; conditions: 48 hrs
Procedure: Cells were treated with compound 6 at 1 µM and 2.5 µM. Amounts for other cmpds are shown. Cells were harvested at 48 hrs and the cell lysates were subjected to western blot analysis and Q-PCR analysis for SALL4 protein and RNA level respectively. […] As shown in the lower panel of FIG. 6, using Q-PCR, it was shown that SALL4 RNA level was reduced by Compound 6 in H661 cells.

[6] = Pharmacokinetic study, whole blood concentration by LC-MS/MS; format: in vivo, Swiss albino mice
Procedure: Compound 6 was dissolved in water containing 3% DMSO and 10% hydroxyl propyl-b-cyclodextrin (EncapsinTM) for the i.v. dose, and in water containing 5% DMSO and 9.5% Encapsin for the oral dose. Blood samples were collected at 0.083, 0.25, 0.5, 1, 2, 4, 6, 8 and 24 hrs. The whole blood concentration was measured by LC-MS/MS. From the oral route, 90% of compound 6 was cleared at 2 hrs. For the intravenous route, 90% of compound 6 was cleared at 4 hrs.

[7] = Metabolic stability using liver microsomes; format: in vitro ADME; conditions: 1 µM, 3.33 mg/ml liver microsomes, 2.5 mM NADPH
Description: as §2
1 µM of compound 6 was incubated with 3.33 mg/ml liver microsomes and 2.5 mM NADPH for 0, 5, 10, 30 and 60 minutes. The mixture were subjected to LC-MS/MS to measure remaining compound after the incubation.

[8] = target: T1, SALL4 1-300 protein (Homo sapiens, UniProt Q9UJQ4); assay: Thermal Shift Assay (fluorescence-based binding assay); conditions: SALL4 1-300 with 100 mM compound
T1 sequence (Q9UJQ4 1-300): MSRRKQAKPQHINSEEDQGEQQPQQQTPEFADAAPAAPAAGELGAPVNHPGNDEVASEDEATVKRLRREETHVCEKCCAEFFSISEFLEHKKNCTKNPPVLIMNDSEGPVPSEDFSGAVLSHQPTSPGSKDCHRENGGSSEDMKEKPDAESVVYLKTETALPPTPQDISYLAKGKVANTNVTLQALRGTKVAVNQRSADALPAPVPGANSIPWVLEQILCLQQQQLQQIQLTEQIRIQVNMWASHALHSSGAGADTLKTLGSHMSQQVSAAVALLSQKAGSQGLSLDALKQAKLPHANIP
Description: In the upper panel of FIG. 7, a fluorescence-based binding assay named Thermal Shift Assay was used to assess the binding of compound 6 to SALL4 1-300 protein based on changes in unfolding transition. […] In the lower panel of FIG. 7, compound 6 binding to SALL4 was accessed by 1H NMR Experiments and Saturation Transfer Difference (STD) using ^15N SALL4 1-300 and Compound 6. The samples were screened using Bruker BioSpin AVANCE II 600 MHz spectrometer equipped with a CPPTCI{ 19F} cryoprobe and SampleJet auto-sampler. Compound 6 weak binding event to SALL4 1-300 was identified based on the increase in transverse relaxation rate (R2) observed in the presence of SALL4 1-300 protein.

Compound: COc1ccc(N)c(NC(=O)/C=C/c2cccnc2Nc2ccc(C(F)(F)F)cc2)c1
IC50 [1]: ~25000 nM
fold less potent than the most active compounds [1]: about 100 fold

Compound: Nc1ccc(F)cc1NC(=O)c1cccnc1Nc1ccc(F)cc1
IC50 in high SALL4 SNU398 cells [1]: inactive

Compound: COc1cc(Nc2ncccc2/C=C/C(=O)Nc2ccc(Cl)cc2N)cc(OC)c1OC [Cmpd 6]
low SALL4 cell inhibition, concentration [2]: high micromolar
activity in high SALL4 cells ([1]; Example 1, see FIG. 2): sub-micromolar
selectivity between SALL4 low and SALL4 high cells (FIG. 2) ([1]; SALL4 high vs SALL4 low cells): excellent
EC50 / potency (FIG. 2) ([1]; cell-based screening, SALL4 high cells): excellent
permeability in PAMPA assay [3]: high
xenograft size [4]: significant (P<0.05) smaller
xenograft weight [4]: significant (P<0.05) smaller
SALL4 RNA level (Q-PCR) [5]: reduced
compound cleared from whole blood ([6]; intravenous 5 mg/kg, at 4 hrs): 90%
compound cleared from whole blood ([6]; oral 15 mg/kg, at 2 hrs): 90%
status in liver microsome assay (printed: permeability status) [7]: medium
metabolic stability in liver microsomes, %QH ([7]; 0-60 minutes): 45.88 %QH
melting shift [8]: 4.7 °C

Compound: COc1cc(Nc2ncccc2/C=C/C(=O)Nc2ccc(Cl)cc2N)cc(OC)c1OC [drawing 157]
IC50 [1]: 150 to 1000 nM

Continued, in another order:

IC50 [1]: 150 to 1000 nM
Compound: COc1ccc(N)c(NC(=O)/C=C/c2cccnc2Nc2cc(OC)c(OC)c(OC)c2)c1

IC50 [1]: 150 to 1000 nM
Compound: COc1cc(Nc2ncccc2/C=C/C(=O)Nc2cc(C)ccc2N)cc(OC)c1OC

IC50 [1]: 150 to 1000 nM
Compound: COc1cc(Nc2ncccc2/C=C/C(=O)Nc2cc(Cl)c(Cl)cc2N)cc(OC)c1OC

IC50 [1]: ~2000 nM
Compound: COc1ccc(Nc2ncccc2/C=C/C(=O)Nc2cc(C)ccc2N)cc1
fold less potent than the most active compounds [1]: about 10 fold

IC50 in high SALL4 SNU398 cells [1]: inactive
Compound: Nc1ccc(Cl)cc1NC(=O)c1cccnc1Nc1ccc(F)cc1
